Literature values, collected in patent US7160555B2, “Immediate release medicinal compositions for oral use” (Kissei Pharmaceutical Co., Ltd., priority 1999, dated 2007).

Tested on: blood sugar
Conditions: Japanese Patent Laid-Open No. 356459/1992

## (2S)-2-benzyl-3-(cis-hexahydro-2-iso-indolinylcarbonyl)propionic acid
  lowering action of blood sugar: remarkable lowering action of blood sugar
